Measurements taken from patent US20090306015A1, “PHARMACEUTICAL COMPOSITIONS AND METHODS OF USE OF HIGHLY LIPOPHILIC SULFHYDRYL COMPOUNDS” (Silamed, Inc., priority 2005, published 2009).
Read-outs that look alike come from different tables or passages of the source.

Columns and labels:
Format in all cases: cell-based
[1] = system: human MD-MBA-231 breast cancer cells; assay: CellTiter-Blue cell viability, monotherapy
Experimental: (§1) CellTiter-Blue® Reagent Method: Following incubation with test compounds for 72 or 96 hours, human MD-MBA-231 breast cancer cells were briefly washed, […] stained with the CellTiter-Blue® Reagent resazurin. Resazurin measures the metabolic capacity of cells, an indicator of cell viability. Viable cells retain the ability to reduce resazurin into resorufin, that is highly fluorescent. […] This test measures the degree of cytotoxicity caused by the test material. IC50 determination: Data are expressed as the percentage of survival of the untreated (vehicle) control calculated from the fluorescence corrected for background absorbance. The surviving fraction of cells were determined by dividing the mean fluorescence values of the test agents by the mean fluorescence values of untreated control. The inhibitory concentration value for the test agent(s) and control were estimated using Prism 4 software (GraphPad Software, Inc.) by curve-fitting the data using the non-linear regression analysis. In some instances IC50 values could not be extrapolated and these are marked (*).

[2] = system: human MD-MBA-231 breast cancer cells; assay: CellTiter-Blue cell viability, 6-hour pretreatment before doxorubicin administration; settings: for 72 Hours IC10 Doxorubicin / 96 Hours IC10 Doxorubicin: 6-hour pretreatment with compound before IC10 doxorubicin; for 72 Hours IC30 Doxorubicin / 96 Hours IC30 Doxorubicin: 6-hour pretreatment with compound before IC30 doxorubicin
Experimental: as §1, with “(*). Compounds of the invention were tested as monotherapy and results presented in TABLE 1 Compounds of the invention were tested in combination with inhibitory concentration 30% and 10% (IC30/IC10) of Adriamycin (doxorubicin) following 6 hours of pretreatment with example compounds and results presented in TABLE 3” for “(*).”

[3] = system: human MD-MBA-231 breast cancer cells; assay: CellTiter-Blue cell viability, concurrent combination treatment with doxorubicin; settings: for 72 Hours IC10 Doxorubicin / 96 Hours IC10 Doxorubicin: concurrent combination with IC10 of Adriamycin (doxorubicin); for 72 Hours IC30 Doxorubicin / 96 Hours IC30 Doxorubicin: concurrent combination with IC30 of Adriamycin (doxorubicin)
Experimental: as §1, with “(*). Compounds of the invention were tested as monotherapy and results presented in TABLE 1 Compounds of the invention were tested in combination with inhibitory concentration 30% and 10% (IC30/IC10) of Adriamycin (doxorubicin) and results presented in TABLE 2” for “(*).”

[4] = 72 hours incubation, read-out: 72 Hours Treatment IC50
[5] = 96 hours incubation, read-out: 96 Hours Treatment IC50

| SMILES | IC50 [1, 4] [µM] | 72 Hours IC10 Doxorubicin [2] [µM] | 96 Hours IC10 Doxorubicin [2] [µM] | 72 Hours IC10 Doxorubicin [3] [µM] | 72 Hours IC30 Doxorubicin [3] [µM] | 96 Hours IC30 Doxorubicin [3] [µM] | IC50 [1, 5] [µM] | 72 Hours IC30 Doxorubicin [2] [µM] | 96 Hours IC30 Doxorubicin [2] [µM] | 96 Hours IC10 Doxorubicin [3] [µM] |
| --- | --- | --- | --- | --- | --- | --- | --- | --- | --- | --- |
| CC(=O)N[C@@H](CS)C(=O)O [N-Acetyl-L-Cysteine, reference compound] | 277 | 499.10 | 454.10 | 129.70 | 639.30 | 925.2 | – | – | – | – |
| CC(=O)N[C@@H](CS)C(=O)NCCC[Si](C)(C)C [Eample 1, (R)-2-acetamido-3-mercapto-N-(3-(trimethylsilyl)propyl)propanamide] | 21.6 | 27.13 | 34.20 | 7.49 | 29.67 | 26.70 | 18.8 | 10.04 | 2.162 | 6.703 |
| CC(=O)N[C@@H](CS)C(=O)NC[Si](C)(C)C [Example 2, (R)-2-acetamido-3-mercapto-N-((trimethylsilyl)methyl)propanamide] | 132 | 210.70 | – | 49.42 | 269.0 | – | 136 | 56.64 | 14.68 | 34.55 |
| CC(=O)N[C@@H](CS)C(=O)NC[Si](C)(C)c1ccccc1 [Example 3, (R)-2-acetamido-N-((dimethyl(phenyl)silyl)methyl)-3-mercaptopropanamide] | 28.1 | 35.69 | 37.88 | 8.553 | 39.29 | 30.63 | 24.3 | 11.21 | 3.799 | 9.479 |
